According to PMC10518257 (Nature Cancer, 2023):
“And” between values parts separate entries of the source, which are not always exact repeats. Equal values may be shown once. Read-outs that look alike come from different tables or passages of the source.

Experiments:
[1] = Animal weight of tumor-bearing mice
Ba/F3 cells = assay: Growth inhibition assay in Ba/F3 cells (CellTiter-Glo, 72 h); type: cell-based; details: Mus musculus
[2] = system: Ba/F3 cells expressing KIF5B–RET^V804M; assay: as above; type: cell-based; details: replicate sets
[3] = system: LUAD-0002AS1 cells (KIF5B::RET); assay: Dose-response western blotting, EC50 for inhibition of protein phosphorylation; type: cell-based; details: Homo sapiens, LUAD-0002AS1, 2 h, densitometry

COCc1ccc(NC(=O)c2c(C#CCN3CCOCC3)n(C3(C)CC3)c3ncnc(N)c23)cc1 [Vepafestinib, 4-amino-N-[4-(methoxymethyl)phenyl]-7-(1-methylcyclopropyl)-6-[3-(morpholin-4-yl)prop-1-yn-1-yl]-7H-pyrrolo[2,3-d]pyrimidine-5-carboxamide]
Animal Weight, Mean ([1]; Ba/F3-KIF5B::RET (Fig 8e), 50 mg/kg BID, day 11): 25.3 g | Animal Weight, Mean ([1]; Ba/F3-KIF5B::RET (Fig 8e), 50 mg/kg BID, day 15): 25.9 g | Animal Weight, Mean ([1]; Ba/F3-KIF5B::RET G810R (Fig 8f), Vepafestinib 10 mg/kg BID, day 1): 25.86 g | Animal Weight, Mean ([1]; Ba/F3-KIF5B::RET G810R (Fig 8f), Vepafestinib 10 mg/kg BID, day 4): 25.30 g | Animal Weight, Mean ([1]; Ba/F3-KIF5B::RET G810R (Fig 8f), Vepafestinib 10 mg/kg BID, day 8): 24.90 g | Animal Weight, Mean ([1]; Ba/F3-KIF5B::RET G810R (Fig 8f), Vepafestinib 10 mg/kg BID, day 11): 25.72 g | Animal Weight, Mean ([1]; Ba/F3-KIF5B::RET G810R (Fig 8f), Vepafestinib 10 mg/kg BID, day 15): 25.22 g | Animal Weight, Mean ([1]; Ba/F3-KIF5B::RET G810R (Fig 8g), Vepafestinib 50 mg/kg BID, day 1): 23.9 g | Animal Weight, Mean ([1]; Ba/F3-KIF5B::RET G810R (Fig 8g), Vepafestinib 50 mg/kg BID, day 4): 24.7 g | Animal Weight, Mean ([1]; Ba/F3-KIF5B::RET G810R (Fig 8g), Vepafestinib 50 mg/kg BID, day 8): 24.9 g | Animal Weight, Mean ([1]; Ba/F3-KIF5B::RET G810R (Fig 8g), Vepafestinib 50 mg/kg BID, day 11): 24.3 g | Animal Weight, Mean ([1]; Ba/F3-KIF5B::RET G810R (Fig 8g), Vepafestinib 50 mg/kg BID, day 15): 24.2 g | Animal Weight (g), Mean ([1]; Ba/F3-KIF5B::RET tumor-bearing mice (Ext. Data Fig 8i), 50 mg/kg BID, day 1): 25.8 g | Animal Weight (g), Mean ([1]; Ba/F3-KIF5B::RET tumor-bearing mice (Ext. Data Fig 8i), 50 mg/kg BID, day 4): 26.2 g | Animal Weight (g), Mean ([1]; Ba/F3-KIF5B::RET tumor-bearing mice (Ext. Data Fig 8i), 50 mg/kg BID, day 8): 26.0 g | Animal Weight (g), Mean ([1]; Ba/F3-KIF5B::RET tumor-bearing mice (Ext. Data Fig 8i), 50 mg/kg BID, day 11): 25.3 g | Animal Weight (g), Mean ([1]; Ba/F3-KIF5B::RET tumor-bearing mice (Ext. Data Fig 8i), 50 mg/kg BID, day 15): 26.9 g | Animal Weight (g), Mean ([1]; Ba/F3-KIF5B::RET tumor-bearing mice (Ext. Data Fig 8h), 50 mg/kg BID, day 1): 28.4 g | Animal Weight (g), Mean ([1]; Ba/F3-KIF5B::RET tumor-bearing mice (Ext. Data Fig 8h), 50 mg/kg BID, day 4): 28.5 g | Animal Weight (g), Mean ([1]; Ba/F3-KIF5B::RET tumor-bearing mice (Ext. Data Fig 8h), 50 mg/kg BID, day 8): 29.3 g | Animal Weight (g), Mean ([1]; Ba/F3-KIF5B::RET tumor-bearing mice (Ext. Data Fig 8h), 50 mg/kg BID, day 11): 29.0 g | Animal Weight (g), Mean ([1]; Ba/F3-KIF5B::RET tumor-bearing mice (Ext. Data Fig 8h), 50 mg/kg BID, day 15): 29.0 g | effect on animal health or animal weight ([1]; ECLC5B xenograft, all dosages, P > 0.05): No dosage of vepafestinib had any adverse effect | Animal Weight ([1]; ECLC5 Xenografts, 25 mg/kg BID, treatment day 7, individual animals, 25 mg/kg): 24 g (2×) and 22 g and 21 g and 27 g | Animal Weight ([1]; ECLC5 Xenografts, 25 mg/kg BID, treatment day 11, individual animals, 25 mg/kg): 24 g and 22 g | Animal Weight ([1]; ECLC5 Xenografts, 50 mg/kg BID, treatment day 7, individual animals, 50 mg/kg): 20 g and 23 g (2×) and 21 g and 22 g | Animal Weight ([1]; ECLC5 Xenografts, 50 mg/kg QD, treatment day 7, individual animals, 50 mg/kg): 22 g (2×) and 21 g and 23 g and 24 g | Animal Weight ([1]; ECLC5 Xenografts, 100 mg/kg QD, treatment day 7, individual animals, 100 mg/kg): 22 g (3×) and 24 g and 25 g | Animal Weight (g), Mean ([1]; LC-2/ad xenograft mice, 25 mg/kg BID, day 0): 25.9 g | Animal Weight (g), Mean ([1]; LC-2/ad xenograft mice, 25 mg/kg BID, day 4): 25.1 g | Animal Weight (g), Mean ([1]; LC-2/ad xenograft mice, 25 mg/kg BID, day 8): 24.6 g | Animal Weight (g), Mean ([1]; LC-2/ad xenograft mice, 25 mg/kg BID, day 11): 24.4 g | Animal Weight (g), Mean ([1]; LC-2/ad xenograft mice, 25 mg/kg BID, day 15): 23.5 g | Animal Weight (g), Mean ([1]; LC-2/ad xenograft mice, 50 mg/kg BID, day 0): 25.1 g | Animal Weight (g), Mean ([1]; LC-2/ad xenograft mice, 50 mg/kg BID, day 4): 25.3 g | Animal Weight (g), Mean ([1]; LC-2/ad xenograft mice, 50 mg/kg BID, day 8): 24.2 g | Animal Weight (g), Mean ([1]; LC-2/ad xenograft mice, 50 mg/kg BID, day 11): 24.4 g | Animal Weight (g), Mean ([1]; LC-2/ad xenograft mice, 50 mg/kg BID, day 15): 23.5 g | Animal Weight (g), Mean ([1]; LC-2/ad xenograft mice, 50 mg/kg QD, day 0): 25.0 g | Animal Weight (g), Mean ([1]; LC-2/ad xenograft mice, 50 mg/kg QD, day 4): 24.8 g | Animal Weight (g), Mean ([1]; LC-2/ad xenograft mice, 50 mg/kg QD, day 8): 24.7 g | Animal Weight (g), Mean ([1]; LC-2/ad xenograft mice, 50 mg/kg QD, day 11): 25.0 g | Animal Weight (g), Mean ([1]; LC-2/ad xenograft mice, 50 mg/kg QD, day 15): 24.3 g | Animal Weight ([1]; NIH-3T3-CCDC6::RET xenografts, 25 mg/kg BID, day 0, 25 mg/kg): 22 g and 21 g and 24 g | Animal Weight ([1]; NIH-3T3-CCDC6::RET xenografts, 25 mg/kg BID, day 2, 25 mg/kg): 23 g and 21 g and 22 g | Animal Weight ([1]; NIH-3T3-CCDC6::RET xenografts, 25 mg/kg BID, day 5, 25 mg/kg): 23 g and 22 g and 24 g | Animal Weight ([1]; NIH-3T3-CCDC6::RET xenografts, 25 mg/kg BID, day 8, 25 mg/kg): 23 g and 22 g | Animal Weight ([1]; NIH-3T3-CCDC6::RET xenografts, 25 mg/kg QD, day 0, 25 mg/kg): 24 g and 22 g and 23 g and 21 g | Animal Weight ([1]; NIH-3T3-CCDC6::RET xenografts, 25 mg/kg QD, day 2, 25 mg/kg): 25 g and 24 g and 22 g | Animal Weight ([1]; NIH-3T3-CCDC6::RET xenografts, 25 mg/kg QD, day 5, 25 mg/kg): 22 g and 23 g and 24 g | Animal Weight ([1]; NIH-3T3-CCDC6::RET xenografts, 25 mg/kg QD, day 8, 25 mg/kg): 25 g and 23 g and 24 g | Animal Weight ([1]; NIH-3T3-CCDC6::RET xenografts, 50 mg/kg BID, day 0, 50 mg/kg): 22 g and 19 g and 21 g | Animal Weight ([1]; NIH-3T3-CCDC6::RET xenografts, 50 mg/kg BID, day 2, 50 mg/kg): 20 g and 24 g and 23 g and 21 g and 22 g | Animal Weight ([1]; NIH-3T3-CCDC6::RET xenografts, 50 mg/kg BID, day 5, 50 mg/kg): 21 g and 24 g and 23 g and 20 g | Animal Weight ([1]; NIH-3T3-CCDC6::RET xenografts, 50 mg/kg BID, day 8, 50 mg/kg): 21 g and 23 g and 24 g | Animal Weight ([1]; NIH-3T3-CCDC6::RET xenografts, 50 mg/kg QD, day 0, 50 mg/kg): 22 g and 21 g | Animal Weight ([1]; NIH-3T3-CCDC6::RET xenografts, 50 mg/kg QD, day 2, 50 mg/kg): 24 g and 23 g | Animal Weight ([1]; NIH-3T3-CCDC6::RET xenografts, 50 mg/kg QD, day 5, 50 mg/kg): 23 g and 24 g | Animal Weight ([1]; NIH-3T3-CCDC6::RET xenografts, 50 mg/kg QD, day 8, 50 mg/kg): 24 g and 25 g | Animal Weight ([1]; NIH-3T3-CCDC6::RET xenografts, 100 mg/kg QD, day 0, 100 mg/kg): 22 g and 21 g and 20 g and 19 g | Animal Weight ([1]; NIH-3T3-CCDC6::RET xenografts, 100 mg/kg QD, day 2, 100 mg/kg): 23 g and 22 g and 19 g | Animal Weight ([1]; NIH-3T3-CCDC6::RET xenografts, 100 mg/kg QD, day 5, 100 mg/kg): 23 g and 22 g and 24 g and 21 g | Animal Weight ([1]; NIH-3T3-CCDC6::RET xenografts, 100 mg/kg QD, day 8, 100 mg/kg): 23 g and 22 g and 24 g and 21 g | GI50 (Ba/F3 cells; BaF3, 72 h, read-out: GI50 value (Mean ± SD), Ba/F3, CellTiter-Glo, 72 h): > 10000 nM | GI50 (Ba/F3 cells; BaF3, Ba/F3 (parental), replicate Sets 1-3): > 10000 nM | GI50 ([2]; Ba/3-KIF5B-RET-V804M): 38.7 nM | GI50 ([2]; Mus musculus, BaF3, Ba/3-KIF5B-RET-V804M): 44.8 nM | EC50 ([3]; read-out: EC50 for Inhibition of Protein Phosphorylation (95% CI), AKT S473): 1.4 nM | EC50 ([3]; read-out: EC50 for Inhibition of Protein Phosphorylation (95% CI), ERK1/2 T202/Y204): 0.9 nM | EC50 ([3]; read-out: EC50 for Inhibition of Protein Phosphorylation (95% CI), MEK1/2 S217/S221): 1.5 nM | EC50 ([3]; read-out: EC50 for Inhibition of Protein Phosphorylation (95% CI), P70 RSK T421/S424): 4.9 nM | EC50 ([3]; read-out: EC50 for Inhibition of Protein Phosphorylation (95% CI), RET Y905): 1.3 nM | EC50 ([3]; read-out: EC50 for Inhibition of Protein Phosphorylation (95% CI), S6RP S235/S236): 15 nM
